Assay results from US7812142B2, “Pentose derivatives as anti-hyperglycemic drugs” (Yissum Research Development Company of the Hebrew …, priority 2002, dated 2010).

Legend:
3T3-L1 adipocytes = assay: Screening of methylated xylose derivatives, dGlc uptake assay (Table 1); format: cell-based; details: Mean±SEM (n=3-6)
Source text: There are five carbon atoms in xylose available for chemical modifications. Each of these atoms was methylated by modifications of published chemical procedures [Bollenback, G. N. (1963) In Methods in carbohydrate chemistry, vol. 2 (Whistler, R. L. and Wolfrom, M. L., eds.), pp. 326-331, Academic Press, New York; Bowering, W. and Timel, T. (1958) Can. J. Chem. 36, 283-285; Levine, P. and Raymomd, A. (1933) J. Biol. Chem. 102, 331-344; Takeo, K. (1992) Carbohyd. Res. 224, 311-318]. All compounds were purified by HPLC and their structure verified by NMR spectroscopy. […] At the end of the incubation period the cells were taken for a standard [^3H]-2-deoxy-D-glucose uptake assay in the absence or the presence of 500 nM insulin (30 min exposure prior to the uptake assay).
3T3-L1 adipocytes and L6 myotubes were maintained for 24 hr at 20 mM glucose. Test compounds were added (0.1-20.0 mM) and the cells were incubated further for 2-45 hr. At the end of the incubation periods the cells were washed and taken for a standard [^3H]2-deoxy-D-glucose (dGlc) uptake assay. Uptake values (given for control cells) are in nmol dGlc/mg protein/min. Mean±SEM (n=3-6).
(§1) Uptake assay of the tritiated glucose analogue, 2-deoxy-D-glucose, is routinely performed as described in [Sasson, S. and Cerasi, E. (1986) J. Biol. Chem. 261, 16827-16833].

[1] = Half-life of D-xylose measured in rats; details: rat, in vivo
glucose transporter = assay: [3H]dGlc uptake with unlabeled carbohydrates (affinity for the glucose transporter) in C2 myotubes; format: cell-based, mouse
Experimental: FIG. 6: Lack of affinity of D-xylose for the glucose transporters. C2 myotubes preconditioned with 20 mM glucose were subjected to [^3H]dGlc uptake assay (0.1 mM dGlc) with increasing concentrations of unlabeled dGlc, glucose or xylose. The unlabeled carbohydrates were added to the [^3H]dGlc solution in the uptake assay.
The inventors have also determined the affinity of D-xylose for the glucose transporter. C2 myotubes preconditioned with 20 mM glucose were subjected to [^3H]dGlc uptake assay (0.1 mM dGlc) in the presence of increasing concentrations of unlabeled dGlc, glucose or xylose. The results of these experiments are depicted in FIG. 6. The affinity of D-xylose for the glucose transporter is 2 orders of magnitude lower compared to glucose. The final concentration of dGlc in the assay was 0.1 mM.

[2] = system: glucose uptake in cultured cells; assay: In vitro glucose uptake / hexose transport in cultured cells with xylose derivatives (Table 2); format: cell-based
Experimental: Table 2 summarizes in vitro results obtained with some of these newly synthesized xylose derivatives.
as §1
All new compounds are screened and tested first in various insulin-sensitive cell cultures used routinely in the laboratory (skeletal muscle and adipose cell lines). In addition these drugs were tested in non-insulin-sensitive cells such as primary cultures of bovine and porcine vascular endothelial and smooth muscle cells. Active compounds were tested ex-vivo on isolated rat soleus muscles. All cell cultures and tissues were maintained under hyperglycemic condition prior to the addition of the test compounds. Dose-response and time-course experiments determine which of the derivatives are subsequently tested in animal models. For each potent compound the total cell content and plasma membrane abundance of GLUT-1 and GLUT-4 was determined, as described above. The same biotinylation technique was employed to determine the total and plasma membrane content of both transporters in isolated mouse or rat soleus muscles treated with potent compounds.

[3] = system: isolated rat soleus muscles; assay: dGlc uptake in isolated soleus muscles; format: cell-based; details: 3 hr, 20 mM glucose with 20 mM xylose (FIG. 9)
Experimental: FIG. 9: Effect of D-xylose on dGlc uptake in soleus muscles. Soleus muscles were isolated from Sabra male albino rats and incubated for 3 hr with 20 mM glucose in the absence or the presence of 20 mM xylose. The muscles were washed and subjected to dGlc uptake assay without or with insulin (500 nM). Mean±SEM (n=3).
Some experiments with isolated rat soleus muscles were performed, in order to exclude cell-line specific effects, and to assess the physiologic relevance of the findings of the present invention. Soleus muscles were isolated from Sabra male albino rats and incubated for 3 hr with 20 mM glucose in the absence or the presence of 20 mM xylose. The muscles were washed and subjected to dGlc uptake assay without or with insulin (500 nM).
The procedure follows that described before in [Sasson et al (1987), Diabetes 36, 1041-46].

L8 myocytes = assay: [3H]-2-deoxy-D-glucose (dGlc) uptake assay in L8 myocytes; format: cell-based
Experimental: The time-course of D-xylose effect in two types of skeletal muscle cells (L8 myocytes and C2 myotubes) was studied. L8 myocytes and C2 myotubes preconditioned in 20 mM glucose were incubated with 20 mM xylose. After 90 min the cells were washed and incubated with 20 mM glucose, and subjected to a deoxyglucose dGlc uptake assay (14).
It has shown before by the inventors of the present invention that deoxyglucose (dGlc) depresses the hexose transport system in myocytes and that a subsequent incubation with low (even no) glucose fails to reverse this effect of dGlc [Sasson, S et al (1997)]. The inventors have therefore measured the effect of D-xylose on rate of hexose transport following treatment with dGlc. In one experiment, C2 myotubes preconditioned with 2 mM glucose received fresh medium containing 2 mM dGlc. A portion of the cells were washed after 30 min and received 20 MM D-xylose or 2 mM D-glucose, and subjected to a dGlc uptake assay at different time points. In another experiment, L8 myocytes preconditioned with 2 mM glucose were washed and incubated with 2 mM xylose or 2 mM dGlc. A portion of the cells were washed again after 2 hr and incubated with 20 mM xylose, and subjected to a dGlc uptake assay at different time points.
This conclusion is also supported by the finding of the a better ability of D-xylose than the other pentoses to reverse 2-deoxy-D-glucose-induced downregulation of the hexose transport system in L8 myocytes. L8 myocytes were preconditioned with 2 mM glucose, washed and incubated with 2 mM dGlc. After 30 min a portion of the cells were washed again and incubated with 20 mM xylose, ribose, arabinose or lyxose. Cells were subjected to the dGlc uptake assay at various time points.
as §1

half-life [1]: 30 to 60 min
EC50 ([2]; EC = Effective concentration): 12 mM
SMILES: O=C[C@H](O)[C@@H](O)[C@H](O)CO [D-xylose]
HEXOSE UPTAKE (Percent of Control) Without Insulin (3T3-L1 adipocytes; 3T3-L1 adipocytes 24 hr at 20 mM glucose, test compounds 0.1-20.0 mM, 2-45 hr): 189 ± 4% of Control
HEXOSE UPTAKE (Percent of Control) With Insulin (3T3-L1 adipocytes; as E1, 500 nM insulin 30 min prior to uptake assay): 158 ± 9% of Control
affinity for the glucose transporter compared to glucose (glucose transporter; 0.1 mM dGlc (FIG. 6)): 2 orders of magnitude lower
competition with [3H]dGlc (glucose transporter; 0.1 mM dGlc, increasing unlabeled carbohydrate): much weaker competitor
molar excess necessary to achieve 50% inhibition of transport (glucose transporter; over 0.1 mM dGlc): at least 100 fold molar excess
Fold Increase of Glucose Uptake [2]: ~2.0 fold
ECmax ([2]; EC = Effective concentration): 20 mM
time to loss of activity after being removed ([2]; after being washed from cell cultures): 10 to 20 min
increase of the rate of dGlc uptake [3]: 42%
reversal of 2-deoxy-D-glucose-induced downregulation of the hexose transport system (L8 myocytes; 20 mM pentose after 30 min 2 mM dGlc (FIG. 8)): better than any of the other pentoses
rate of hexose transport downregulated by dGlc (L8 myocytes; 20 mM xylose after 2 hr 2 mM dGlc (FIG. 4B)): increased the rate of hexose transport
rate of glucose transport (L8 myocytes; 20 mM xylose, cells preconditioned in 20 mM glucose (FIG. 1)): increases the rate of glucose transport
